Source: paper PMC6272646, “Understanding the Physicochemical Properties of Mitragynine, a Principal Alkaloid of Mitragyna speciosa, for Preclinical Evaluation” (Molecules, 2015)
Where two headings read alike, the source gives them in different places.

Key:
[1] = design: method as in PMID 24841968; details: cited from earlier work
rats = test system: rats; design: method as in PMID 25262913; details: cited from earlier work
rodents = test system: rodents; design: method as in PMID 4626477; details: cited from earlier work
[2] = In vitro release (dissolution) from capsules filled with mitragynine pure standard; assay type: physicochemical; details: up to 2 h, capsule, basket method, 50 rpm, 37 °C
Protocol: Hard shell gelatin capsules filled with mitragynine pure standard were used in the in vitro dissolution study. In order to characterize the release of mitragynine, drug release profile was generated, in which mitragynine release values were determined as a function of time. The US pharmacopoeia I (basket) method was used for the in vitro dissolution study. SGF (pH 1.2) and SIF (pH 6.8) were prepared without enzymes. These media were used for the dissolution study, respectively. The capsule filled with mitragyine was introduced into 500 mL of dissolution medium. The capsule was agitated at 50 rpm at 37 °C. An aliquot (1 mL) of sample was withdrawn at predetermined time intervals of 5, 10, 15, 30, 40, 60, 90 and 120 min after onset of the dissolution. The samples were filtered through 0.45 um PTFE syringe filters, diluted with ACN (1:1) and the drug concentration was determined by the validated RP-HPLC-UV method. Samples were analyzed along with QC samples.

opiate receptor = test system: opiate receptor; design: method as in ref 29 = [29]; 29. Watanabe K. Yano S. Horie S. Yamamoto L.T. Takayama H. Aimi N. Sakai S. Ponglux D. Tongroach P. Shan J. Pharmacological properties of some structurally related indole alkaloids contained in the As; details: cited from earlier work
[3] = Stability in simulated intestinal fluid (SIF, with enzymes); details: for Concentration Found in SIF: SIF pH 6.8 with pancreatin
[4] = pKa determination, conventional UV spectrophotometer method; assay type: physicochemical; details: aqueous buffer
Source text: The instruments employed were UV spectrophotometer 8453 UV-Vis Diode Array (Agilent, Santa Clara, CA, USA), and Multiskan* GO Microplate Spectrophotometer (Thermo Scientific, Waltham, MA, USA). Data were captured using the Thermo Scientific SkanIt Software (Thermo Scientific, Version 3.2). Buffer Maker Software (version 1.0.1.55, BPP Marcin Borkowski, Marki, Poland,) was used for preparation of buffers with constant ionic strength for pKa determination. The pH-meter employed throughout the study was a PH 211 Hanna (Padova, Italy) equipped with a combined glass electrode.
pKa determination was carried out using conventional UV and microplate spectrophotometer methods. Acetic acid, tris base and sodium carbonate were used to prepare stable buffers in the pH range of 3 to 12. The buffers were prepared to give a final buffer molarity of 0.01 M. Either NaOH or HCl were used for pH adjustment of the various buffers, whose ionic strength was kept constant at 0.02 by addition of NaCl.
Five mL aliquots of buffer of various pH were transferred into separate tubes. To each tube, mitragynine stock solution in acetonitrile (4 mg/mL) was added to give a final drug concentration of 20 µg/mL. The percentage of organic content in final buffer preparation was kept below 1%. The prepared solutions were immediately scanned in the range of 200–400 nm.
Stock solution of mitragynine at 0.5 mg/mL was prepared in acetonitrile. Ten microliters of the stock solution was transferred into individual test tubes and diluted with 1.0 mL buffer of various pH to give a final concentration of 5 μg/mL. For absorbance spectrum analysis, 250 μL of the various pH buffer solutions spiked with drug were placed in a 96-well quartz UV-transparent microplate and immediately scanned in the range of 200–400 nm at a scanning rate of 200 nm/s in triplicates. The pKa was calculated with equation pKa = pH + log (d − dm/di − d), for basic compound, where di is the absorbance of the ionised species, d is the absorbance of the solution tested and dm is the absorbance of the neutral species.

[5] = n-octanol/water partition coefficient (logP, logD); assay type: physicochemical; details: for logD: read-out: Calculated n-octanol/water partition coefficient (logD)
Protocol: The HPLC system consisted of a Jasco delivery pump (Tokyo, Japan) equipped with autosampler connected to a Waters 2487 detector (Milford, MA, USA) coupled to Jasco Chromnav software (Version 2.0, Tokyo, Japan). Chromatographic separation was performed on a C8 Agilent Eclipse plus (4.6 mm i.d. × 250 mm, 5-μm particle size; Apple Valley, MN, USA). The HPLC-UV method was adapted from our previous study and revalidated for the present HPLC system. The method was employed to quantify mitragynine in partition coefficient, stability, dissolution and solubility studies.
Lipophilicity of mitragynine was determined by n-octanol/water partition coefficient (P) using the method described by Low et al.. The distribution coefficient (log D) was determined in a similar manner to logP but instead of using water, buffers with a specific pH (4, 7, and 9) were used.

CC[C@@H]1CN2CCc3c([nH]c4cccc(OC)c34)[C@@H]2C[C@@H]1/C(=C\OC)C(=O)OC [mitragynine]
drug loss in SGF [1]: 26%
addictive potential effects (rats; i.p. in Tween 80, high (30 mg/kg) and moderate (10 mg/kg) doses): observed
addictive potential effects (rats; i.p. in Tween 80, mild (5 mg/kg) and low (1 mg/kg) doses): absent
dose levels with no toxicity (rodents): 800 to 900 mg/kg
drug released (dissolution) ([2]; SGF pH 1.2 without enzymes): 80%
drug released (dissolution) ([2]; SIF pH 6.8 without enzymes): 22%
antinociceptive effect, potency compared with M. speciosa crude extract (opiate receptor): less potent than the M. speciosa crude extract
Concentration Found in SIF ([3]; 0 min, 37 °C): 6700 ± 600 ng/mL
RD (relative difference vs time 0) in SIF ([3]; 10 min): −0.07%
Concentration Found in SIF ([3]; 10 min, 37 °C): 6690 ± 630 ng/mL
Concentration Found in SIF ([3]; 20 min, 37 °C): 6560 ± 670 ng/mL
RD (relative difference vs time 0) in SIF ([3]; 30 min): 4.43%
Concentration Found in SIF ([3]; 30 min, 37 °C): 6990 ± 210 ng/mL
RD (relative difference vs time 0) in SIF ([3]; 40 min): 4.94%
Concentration Found in SIF ([3]; 40 min, 37 °C): 7030 ± 130 ng/mL
RD (relative difference vs time 0) in SIF ([3]; 50 min): 3.49%
Concentration Found in SIF ([3]; 50 min, 37 °C): 6930 ± 130 ng/mL
RD (relative difference vs time 0) in SIF ([3]; 60 min): 2.49%
Concentration Found in SIF ([3]; 60 min, 37 °C): 6860 ± 10 ng/mL
RD (relative difference vs time 0) in SIF ([3]; 120 min): 1.31%
Concentration Found in SIF ([3]; 120 min, 37 °C): 6780 ± 790 ng/mL
RD (relative difference vs time 0) in SIF ([3]; 180 min): 3.46%
Concentration Found in SIF ([3]; 180 min, 37 °C): 6930 ± 770 ng/mL
stability in SIF (in words) ([3]; SIF pH 6.8, 3 h, 37 °C): considered stable
pKa ([4]; UV Spectrophotometer, Day 1, read-out: pKa, interday repeatability): 8.18
pKa ([4]; UV Spectrophotometer, Day 2, read-out: pKa, interday repeatability): 8.11
pKa ([4]; UV Spectrophotometer, Day 3, read-out: pKa, interday repeatability): 8.15
pKa ([4]; pH 7.52, target pH 7.6, actual pH 7.52, 20 µg/mL, 248 nm, read-out: pKa): 8.02
pKa ([4]; pH 7.6, conventional UV method, mean over pH 7.6-9.0, read-out: pKa (Mean ± SD)): 8.11 ± 0.11
pKa ([4]; pH 7.78, target pH 7.8, actual pH 7.78, 20 µg/mL, 248 nm, read-out: pKa): 8.16
pKa ([4]; pH 7.96, target pH 8.0, actual pH 7.96, 20 µg/mL, 248 nm, read-out: pKa): 8.17
pKa ([4]; pH 8.13, target pH 8.2, actual pH 8.13, 20 µg/mL, 248 nm, read-out: pKa): 8.18
pKa ([4]; pH 8.34, target pH 8.4, actual pH 8.34, 20 µg/mL, 248 nm, read-out: pKa): 8.13
pKa ([4]; pH 8.45, target pH 8.6, actual pH 8.45, 20 µg/mL, 248 nm, read-out: pKa): 8.05
pKa ([4]; pH 8.71, target pH 8.8, actual pH 8.71, 20 µg/mL, 248 nm, read-out: pKa): 8.27
pKa ([4]; pH 8.92, target pH 9.0, actual pH 8.92, 20 µg/mL, 248 nm, read-out: pKa): 7.93
logD ([5]; n-octanol/buffer pH 4, pH 4): 0.78
logD ([5]; n-octanol/buffer pH 7, pH 7): 1.73
logD ([5]; n-octanol/buffer pH 9, pH 9): 1.56
logP ([5]; n-octanol/water, read-out: Calculated n-octanol/water partition coefficient (logP)): 1.7
Mitragynine Content in buffer layer ([5]; octanol / buffer pH 4): 2.98 µg/mL
Mitragynine Content in octanol layer ([5]; octanol / buffer pH 4): 17.97 µg/mL
Mitragynine Content in buffer layer ([5]; octanol / buffer pH 7): 0.38 µg/mL
Mitragynine Content in octanol layer ([5]; octanol / buffer pH 7): 20.54 µg/mL
Mitragynine Content in buffer layer ([5]; octanol / buffer pH 9): 0.51 µg/mL
Mitragynine Content in octanol layer ([5]; octanol / buffer pH 9): 18.45 µg/mL
Mitragynine Content in aqueous layer ([5]; octanol / water): 0.42 µg/mL
Mitragynine Content in octanol layer ([5]; octanol / water): 20.74 µg/mL
